We go through eight compounds from ChEMBL document CHEMBL5505981, “Design, synthesis and biological evaluation of novel 1,2,4a,5-tetrahydro-4H-benzo[b][1,4]oxazino[4,3-d][1,4]oxazine-based AAK1 inhibitors with anti-viral property against SARS-CoV-2” (Eur J Med Chem, 2024).

Bounds are passed on as bounds.

In series [1] the test system is HEK293. Format: toxicity, cell-based. As to conditions: human, hek293, 48 h, 30 µM.
In series [2] the target is T1, AP2-associated protein kinase 1 (Homo sapiens, UniProt Q2M2I8). Format: cell-based.
Series [3] addresses T1, AP2-associated protein kinase 1. The series can be described thus: Inhibition of AAK1 (unknown origin).
A short description of series [4]: Cytotoxicity against human Huh-7 cells. Format: toxicity, cell-based.
A short description of series [5]: Cytotoxicity against human Huh7.5 cells. Format: toxicity, cell-based, Huh-7.5.
The subject of series [6] is HEK293. Format: toxicity, cell-based. As to conditions: human, hek293, 48 h, 20 µM.
The test system of series [7] is HEK293. The format is toxicity, cell-based. As to conditions: human, hek293, 48 h, 6 µM.
In the next series the test system is Dengue virus. Nature of the series: Antiviral activity against DENV infected in human Huh-7 cells. Format: functional, organism-based.
The subject of a further series is Ebolavirus. The series can be described thus: Antiviral activity against EBOV. Format: functional, organism-based. As to conditions: Orthoebolavirus.

T1 sequence (Q2M2I8 whole entry): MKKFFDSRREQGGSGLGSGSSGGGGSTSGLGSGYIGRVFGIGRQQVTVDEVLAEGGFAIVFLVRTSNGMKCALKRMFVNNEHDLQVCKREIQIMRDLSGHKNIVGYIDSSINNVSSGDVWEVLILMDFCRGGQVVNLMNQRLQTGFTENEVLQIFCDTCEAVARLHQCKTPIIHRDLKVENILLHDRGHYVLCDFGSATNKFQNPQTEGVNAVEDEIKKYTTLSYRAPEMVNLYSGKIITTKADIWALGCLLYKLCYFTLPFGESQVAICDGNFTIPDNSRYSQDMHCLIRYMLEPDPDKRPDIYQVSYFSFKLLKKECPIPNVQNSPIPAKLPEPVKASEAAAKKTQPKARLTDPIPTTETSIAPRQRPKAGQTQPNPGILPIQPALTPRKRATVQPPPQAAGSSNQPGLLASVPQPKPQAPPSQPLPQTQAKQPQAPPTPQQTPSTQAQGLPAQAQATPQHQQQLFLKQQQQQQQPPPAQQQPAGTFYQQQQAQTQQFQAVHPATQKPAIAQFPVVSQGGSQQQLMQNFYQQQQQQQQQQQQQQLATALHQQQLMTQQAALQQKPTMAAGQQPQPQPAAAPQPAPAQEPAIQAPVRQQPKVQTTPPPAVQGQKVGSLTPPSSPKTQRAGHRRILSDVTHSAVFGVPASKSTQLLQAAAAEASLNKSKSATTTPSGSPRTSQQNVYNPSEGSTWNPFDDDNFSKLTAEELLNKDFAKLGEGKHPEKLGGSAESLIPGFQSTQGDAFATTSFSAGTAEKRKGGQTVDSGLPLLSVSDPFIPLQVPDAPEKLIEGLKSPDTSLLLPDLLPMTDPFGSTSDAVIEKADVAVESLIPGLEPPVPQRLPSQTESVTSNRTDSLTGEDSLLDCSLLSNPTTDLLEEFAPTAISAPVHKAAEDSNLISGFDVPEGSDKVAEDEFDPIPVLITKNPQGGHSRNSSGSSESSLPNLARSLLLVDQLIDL

For the compound `CCN(CC)S(=O)(=O)Nc1cccc(-c2ccc3c(NC(=O)C4CC4)n[nH]c3c2)c1`, in the series on HEK293 [1], the Activity entry is recorded as “Non-Toxic”.
The term IC50 denotes the concentration that inhibits the measured activity by half. Low readings indicate greater potency, high ones weaker potency. Turning to `C(#Cc1c[nH]c2ncc(-c3ccc4c(c3)OCC3COCCN43)cc12)c1ccccc1` (stereo not given), the IC50 in [2] is more than 500 nM.
In turn, `CC(C)C[C@](C)(N)COc1ccc(-c2ccnc(C(F)F)c2)nc1C(F)F` [PILAVAPADIN] registered an IC50 in series [3] of 1.2 nM. In the series on HEK293 [1], the Activity entry was “Non-Toxic”.
The compound `NCCCC#Cc1c[nH]c2ncc(-c3ccc4c(c3)OCC3COCCN43)cc12` (stereo not given) came in with an IC50 in series [2] of more than 500 nM.
The CC50 is the concentration at which the toxic effect on the cells reaches its halfway point. Lower therefore signals greater toxicity to the cells. `CCN(CC)CCNC(=O)c1c(C)[nH]c(/C=C2\C(=O)Nc3ccc(F)cc32)c1C` [SUNITINIB]: the CC50 in [4] was 11500 nM; in series [5], more than 10000 nM. Further, the Activity entry with HEK293 [6] is recorded as “Non-Toxic”.
`C(#Cc1c[nH]c2ncc(-c3ccc4c(c3)OCC3COCCN43)cc12)c1cccnc1` (stereo not given): the Activity entry in the series with HEK293 [7] was “Toxic”.
Broadly, the EC50 is the concentration giving half of the maximal effect. Low values mean greater potency, high ones weaker potency. With `N#Cc1ccc(-c2cnc3[nH]cc(NC(=O)c4cccnc4)c3c2)cc1`, the EC50 was 8000 nM in the series with Dengue virus and more than 10000 nM in the series with Ebolavirus. Besides, the CC50 in series [4] is more than 50000 nM.
Consider `COc1ccc(-c2cnc3[nH]cc(C#Cc4cccnc4)c3c2)cc1OC`, for which the midpoint of the response in the series with Dengue virus, the EC50, lay at 720 nM. The compound further gave an IC50 in [2] of 7.57 nM. Moreover, in the series on HEK293 [7], the Activity result is on record as “Toxic”.
